Patent US8349854B2, “Salts of 4-aniline quinazoline derivative” (priority 2007, dated 2013)
Like-named read-outs stand apart in the source and are kept apart here.

Key:
[1] = Solubility test in water and in methanol at room temperature; format: physicochemical; conditions: thermodynamic from solid
Description: According to the conventional method for determining the solubility, at the room temperature, a suitable amount of the compound to be tested was placed in 15 mL of water. Then the compound was dissolved by sufficient stir. The solution is placed at room temperature for 3 hours. Then 10 ml of the clear saturated supernatant was transferred into the weighing bottle with the pipette. The solvent was evaporated by heating, and the residue was dried and weighed to obtain the mass of the residue, which was the mass of the solute. After calculation, the solubility of the compound of formula (I) and the salts thereof in water can be obtained. The solubility of the compound to be tested in methanol was determined along the same lines.

[2] = Drug absorption in SD rat, intragastric administration (ig); format: in vivo
Description: (§1) The blood samples were collected 0.5, 1.0, 1.5, 2.0, 3.0, 5.0, 7.0, 9.0, 12 and 24 hours after administration, which were then centrifugated respectively to obtain the plasma. The concentration of the drug in the plasma was determined by means of liquid chromatography/tandem mass spectrometer, and the concentration-time curve was obtained.

Erb-B2 = Erb-B2 (Homo sapiens, UniProt P04626); conditions: in vitro; from PCT/CN2006/002786, result in words; cited from earlier work
Erb-B2, sequence (P04626 23-1255, species assumed): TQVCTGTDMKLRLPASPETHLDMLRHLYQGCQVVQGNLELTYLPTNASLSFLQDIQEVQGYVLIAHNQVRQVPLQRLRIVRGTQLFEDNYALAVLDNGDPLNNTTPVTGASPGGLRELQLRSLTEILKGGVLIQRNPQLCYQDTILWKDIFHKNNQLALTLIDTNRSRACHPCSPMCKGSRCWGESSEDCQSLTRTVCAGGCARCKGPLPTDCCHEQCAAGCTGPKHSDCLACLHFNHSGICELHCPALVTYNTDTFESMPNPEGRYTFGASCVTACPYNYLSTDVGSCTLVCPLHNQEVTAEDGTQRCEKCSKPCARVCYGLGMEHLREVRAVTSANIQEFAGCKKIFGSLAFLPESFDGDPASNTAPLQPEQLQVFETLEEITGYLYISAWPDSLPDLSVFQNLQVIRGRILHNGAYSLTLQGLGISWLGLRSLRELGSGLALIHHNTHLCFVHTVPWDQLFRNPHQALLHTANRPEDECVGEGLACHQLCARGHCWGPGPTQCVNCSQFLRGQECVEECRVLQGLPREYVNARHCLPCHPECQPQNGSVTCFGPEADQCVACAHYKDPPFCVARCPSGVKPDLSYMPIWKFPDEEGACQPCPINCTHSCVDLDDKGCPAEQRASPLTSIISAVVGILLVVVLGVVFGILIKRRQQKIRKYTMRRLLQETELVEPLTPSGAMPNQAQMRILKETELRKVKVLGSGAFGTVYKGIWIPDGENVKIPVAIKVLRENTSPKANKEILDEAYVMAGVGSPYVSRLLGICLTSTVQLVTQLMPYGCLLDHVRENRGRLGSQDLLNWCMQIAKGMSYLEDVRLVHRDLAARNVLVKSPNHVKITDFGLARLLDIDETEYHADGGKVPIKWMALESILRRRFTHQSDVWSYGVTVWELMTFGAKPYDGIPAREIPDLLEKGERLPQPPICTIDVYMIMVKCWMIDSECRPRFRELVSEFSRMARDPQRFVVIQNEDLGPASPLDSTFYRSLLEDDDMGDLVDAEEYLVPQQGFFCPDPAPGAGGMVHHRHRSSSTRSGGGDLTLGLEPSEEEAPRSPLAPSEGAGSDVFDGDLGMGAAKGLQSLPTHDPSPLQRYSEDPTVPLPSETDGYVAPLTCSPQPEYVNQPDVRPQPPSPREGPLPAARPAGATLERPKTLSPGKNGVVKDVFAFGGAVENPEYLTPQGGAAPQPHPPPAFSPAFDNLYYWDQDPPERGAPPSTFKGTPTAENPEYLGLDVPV

[3] = system: human epidermoid squamous cancer cells A431; conditions: from PCT/CN2006/002786, result in words; cited from earlier work
[4] = system: human mammary cancer cells BT-474; conditions: from PCT/CN2006/002786, result in words; cited from earlier work
[5] = system: human epidermoid squamous cancer cells A431; conditions: from PCT/CN2006/002786, result in words; cited from earlier work; remark: listed apart in the source
EGFR tyrosine kinases = EGFR tyrosine kinases (Homo sapiens, UniProt P00533); assay: Inhibitory effect on EGFR tyrosine kinases (ELISA, Poly(Glu,Tyr) 4:1); format: biochemical; conditions: result in words
Description: The plate coated with EGFR tyrosine kinases reaction substrate Poly(Glu, Tyr) 4:1 was washed three times with T-PBS and dried in oven at the temperature of 37° C. Every well was added with the ATP solution diluted with reaction buffer, the compound to be tested with grading concentrations and the tyrosine kinases to be tested in sequence to initiate the reaction. The plate was incubated in a shaker for 1 hour at the temperature of 37° C., and then was washed three times with T-PBS (the phosphate buffer containing 0.05% of Tween with a pH of 7.4). Antibody PY99 was added and the reaction was kept on at 37° C. for 1 hour. The plate was washed three times with T-PBS, HRP labeled goat anti mouse IgG was then added and incubated at 37° C. for 1 hour. The colorimetric solution of OPD (o-phenylenediamine) was added and the mixture was reacted in dark at room temperature for 1-10 min. The reaction was terminated by the addition of 2M of H2SO4. The OD value at wavelength of 492 nm was measured using the VersaMax™ microplate reader (MDC company, USA). The inhibitory effect of the samples on EGFR tyrosine kinases was determined by the following formula: Inhibition %=[1−(OD Value of the compound to be tested −OD Value of the control without enzyme)/(OD Value of the negative control−OD Value of the control without enzyme)]×100%.

[6] = system: human epidermatoid squamous cancer cell A431; assay: Inhibition of proliferation of tumor cell lines (MTT), A431; format: cell-based; conditions: 72 h
Description: (§2) A DMSO solvent control well and a blank well were set in the plate. […] The incubation was continued for 4 h, and 50 μL of triple-expansion solution (10% SDS-5% of isobutyl alcohol-0.01 mol/L of HCl) was added. The plate was placed in the incubator overnight. The OD value was measured by the microplate reader at wavelength of 570 nm.

[7] = system: human breast cancer cell BT-474; assay: Inhibition of proliferation of tumor cell lines (MTT), BT-474; format: cell-based; conditions: BT-474, MTT, 72 h
Description: as §2

[8] = SD rats, gavage 4 weeks, 20, 50, 100, 500 and 800 mg/(kg·day)
Description: Five test groups with the dose of 20, 50, 100, 500 and 800 mg/(kg·day) respectively and a solvent control group were set.

[9] = system: human ovarian cancer SKOV-3; assay: Anti-tumor effect on human ovarian cancer SKOV-3 transplanted to the BALB/cA nude rat; format: in vivo
Description: A tumor SKOV-3 in vigorous growth period was selected and incised into several bits of an even size of about 1.5 mm^3, which was inoculated subcutaneously to the right armpit of the BALB/cA nude rats using trocar under sterile condition. The diameters of the transplanted tumors were measured with a vernier caliper. The animals were grouped randomly when the tumors reached a size of 80-100 mm^3. The tested animals of the group receiving the compounds to be tested were administrated with the compounds by gavage through mouth once daily for 3 weeks continuously. The positive control drug MMC (Mitomycin) was administered by intravenous injection once on the first day with a dose of 5 mg/kg. The negative control group was administered with 0.5% CMC-Na (Carboxymethyl Cellulose Sodium) with a dose of 0.2 mL/per rat. The major axis (a) and the minor axis (b) of the tumors were measured twice every week and the rats were weighed at the same time. According to the formula V=ab^2/2, the tumor volume (mm^3) could be calculated, based on which the relative tumor volume (RTV) was determined (Formula: RTV=Vt/V0, wherein V0 represents the tumor volume measured at the grouping time (i.e. d0), and Vt represents the tumor volume measured each time). The relative tumor proliferation rate T/C (%) was chosen here to evaluate the anti-tumor activity, which can be calculated according to the following formula: T/C(%)=(TRTV/CRTV)×100%
TRTV: RTV of the group receiving the compounds to be tested; CRTV: RTV of negative control group

[10] = Drug absorption in SD rat, intravenous injection (iv); format: in vivo; conditions: 5 mg/kg
Description: as §1, with “collected 5 min, 15 min,” for “collected”, “0.5,” for “0.5, 1.0,”, “3.0, 4.0,” for “3.0,”, “7.0” for “7.0, 9.0, 12 and 24”

[11] = system: human epidermatoid squamous cancer A431; assay: Anti-tumor effect on human epidermatoid squamous cancer A431 transplanted to the BALB/cA nude rat; format: in vivo; conditions: for Weight of animals (without tumor) / inhibition for tumor % / Weight of tumors x ± SD: 13 days; for Weight of tumors x ± SD: 23 days after inoculation
Description: A well-developed solid tumor A431 was selected and incised into several bits of an even size of 2-3 mm, with one bit being inoculated subcutaneously to the right armpit of each of the BALB/cA nude rats using trocar. 7 days after inoculation, the rats were grouped randomly and were administrated with the compounds by gavage through mouth for 13 days continuously. The major axis (a) and the minor axis (b) of the tumors were measured with a vernier caliper every 4 days. According to the formula V=ab^2/2, the tumor volume (mm^3) could be calculated. The tested animals were neck-off killed 23 days after the inoculation, and anatomized to obtain the tumors. The tumors were weighed and the inhibitory effect of the compounds to be tested was figured out.

[12] = SD rat, ig, dosage 21.68 (formula (I)), 23.42 (hydrochloride), 30 mg/kg (p-toluenesulfonate)
[13] = SD rat, revised by dosage, calculated by AUC0-t
[14] = 5 mg/kg iv once on the first day, after 3 weeks
[15] = 50 mg/kg ig once daily for 3 weeks
[16] = 100 mg/kg ig once daily for 3 weeks
[17] = 200 mg/kg ig once daily for 3 weeks

Compound: C=CC(=O)Nc1ccc2ncnc(Nc3ccc(OCc4cccc(F)c4)c(Cl)c3)c2c1 [Compound of formula (I), N-{4-[3-chloro-4-(3-fluoro-benzyloxy)phenylamino]quinazolin-6-yl}-acrylamide]
- solubility at 3 h ([1]; organic solvent or mixture, methanol, read-out: Solubility in methanol(/mL)): < 1000 µg/mL
- solubility at 3 h ([1]; water, read-out: Solubility in water(/mL)): < 0.01 µg/mL
- half-life ([2]; male, SD, rat, plasma, po, 30 mg/kg): 1.81 h
- AUC0-t ([2]; male, SD, rat, plasma, po, 30 mg/kg, read-out: AUC0-t): 0.106 µg·h/mL
- Cmax ([2]; male, SD, rat, plasma, po, 30 mg/kg, read-out: Cmax): 0.032 µg/mL
- Tmax ([2]; male, SD, rat, plasma, po, 30 mg/kg, read-out: Tmax): 0.75 h
- bioavailability ([2]; male, plasma, po, 21.68 mg/kg, SD rat, revised by dosage, calculated by AUC0-t, read-out: absolute bioavailability by ig): 0.95%
- inhibitory activity against Erb-B2 (Erb-B2): excellent inhibitory activity
- inhibitory activity of human epidermoid squamous cancer cells A431 [3]: relatively good inhibitory activity
- inhibitory activity of human mammary cancer cells BT-474 [4]: relatively good inhibitory activity
- anti-tumor effect on A431 transplanted to a nude rat [5]: conspicuous anti-tumor effect

Compound: C=CC(=O)Nc1ccc2ncnc(Nc3ccc(OCc4cccc(F)c4)c(Cl)c3)c2c1.Cl [Hydrochloride, The hydrochloride of N-{4-[3-chloro-4-(3-fluoro-benzyloxy)phenyl-amino]-quinazolin-6-yl}-acrylamide]
- AUC0-t [2, 12]: 1.038 µg·h/mL
- Cmax [2, 12]: 0.289 µg/mL
- T1/2 [2, 12]: 1.27 h
- Tmax [2, 12]: 2.25 h
- absolute bioavailability by ig [2, 13]: 9.30%
- inhibitory activity of EGFR tyrosine kinases (EGFR tyrosine kinases): excellent inhibitory activity
- IC50 ([6]; listed as hydrochloride): 0.84 µM
- IC50 ([7]; listed as hydrochloride): 0.46 µM
- food intake [8]: normal food intake
- physical signs, appearance, behaviors, activities or shape of dejecta [8]: no abnormality

Compound: CO[C@@]12[C@H](COC(N)=O)C3=C(C(=O)C(C)=C(N)C3=O)N1C[C@@H]1N[C@@H]12 [MMC, Mitomycin, reference compound]
- RTV [9, 14]: 3.1 ± 0.5
- T/C [9, 14]: 32.0%
- Volume of tumor V21 [9, 14]: 258 ± 77 mm^3

Compound: C=CC(=O)Nc1ccc2ncnc(Nc3ccc(OCc4cccc(F)c4)c(Cl)c3)c2c1.CS(=O)(=O)O [Methanesulfonate, Methanesulfonate of N-{4-[3-chloro-4-(3-fluoro-benzyloxy)phenylamino]-quinazolin-6-yl}-acrylamide]
- inhibitory activity of EGFR tyrosine kinases (EGFR tyrosine kinases): excellent inhibitory activity
- food intake [8]: normal food intake
- physical signs, appearance, behaviors, activities or shape of dejecta [8]: no abnormality

Compound: C=CC(=O)Nc1ccc2ncnc(Nc3ccc(OCc4cccc(F)c4)c(Cl)c3)c2c1.O=C(O)C(=O)O [Oxalate, Oxalate of N-{4-[3-chloro-4-(3-fluoro-benzyloxy)phenylamino]-quinazolin-6-yl}-acrylamide]
- inhibitory activity of EGFR tyrosine kinases (EGFR tyrosine kinases): excellent inhibitory activity
- food intake [8]: normal food intake
- physical signs, appearance, behaviors, activities or shape of dejecta [8]: no abnormality

Compound: C=CC(=O)Nc1ccc2ncnc(Nc3ccc(OCc4cccc(F)c4)c(Cl)c3)c2c1.Cc1ccc(S(=O)(=O)O)cc1 [p-Toluenesulfonate, p-Toluenesulfonate of N-{4-[3-chloro-4-(3-fluoro-benzyloxy)phenylamino]quinazolin-6-yl}-acrylamide]
- AUC0-t [2, 12]: 1.235 µg·h/mL
- Cmax [2, 12]: 0.333 µg/mL
- T1/2 [2, 12]: 1.22 h
- Tmax [2, 12]: 3.38 h
- absolute bioavailability by ig [2, 13]: 11.07%
- AUC0-t [10]: 1.86 µg·h/mL
- Cmax [10]: 1.745 µg/mL
- T1/2 [10]: 1.55 h
- Tmax [10]: 4.98 min
- inhibitory activity of EGFR tyrosine kinases (EGFR tyrosine kinases): excellent inhibitory activity
- IC50 [6]: 0.73 µM
- IC50 [7]: 0.42 µM
- Weight of animals (without tumor) ([11]; 25 mg/kg ig): 21.58 ± 2.18 g
- inhibition for tumor % ([11]; 25 mg/kg ig): 29.99%
- Weight of tumors x ± SD ([11]; 25 mg/kg ig): 0.79 ± 0.20 g
- Weight of animals (without tumor) ([11]; 50 mg/kg ig): 22.05 ± 1.59 g
- inhibition for tumor % ([11]; 50 mg/kg ig): 37.15%
- Weight of tumors x ± SD ([11]; 50 mg/kg ig): 0.71 ± 0.20 g
- Weight of animals (without tumor) ([11]; 100 mg/kg ig): 22.35 ± 1.92 g
- inhibition for tumor % ([11]; 100 mg/kg ig): 48.65%
- Weight of tumors x ± SD ([11]; 100 mg/kg ig): 0.58 ± 0.21 g
- inhibitory effect on the tumors (A431 xenograft) ([11]; result in words): significant inhibitory effect
- RTV [9, 15]: 5.1 ± 1.7
- T/C [9, 15]: 53.0%
- Volume of tumor V21 [9, 15]: 421 ± 89 mm^3
- RTV [9, 16]: 4.3 ± 1.3
- T/C [9, 16]: 45.0%
- Volume of tumor V21 [9, 16]: 345 ± 88 mm^3
- RTV [9, 17]: 3.5 ± 0.8
- T/C [9, 17]: 36.9%
- Volume of tumor V21 [9, 17]: 303 ± 72 mm^3
- tumor inhibitory effect (SKOV-3 xenograft) ([9]; result in words): conspicuous tumor inhibitory effect
- food intake [8]: normal food intake
- physical signs, appearance, behaviors, activities or shape of dejecta [8]: no abnormality

Compound: Tartrate of N-{4-[3-chloro-4-(3-fluoro-benzyloxy)phenylamino]-quinazolin-6-yl}-acrylamide
- inhibitory activity of EGFR tyrosine kinases (EGFR tyrosine kinases): excellent inhibitory activity
- food intake [8]: normal food intake
- physical signs, appearance, behaviors, activities or shape of dejecta [8]: no abnormality
- weight and weight growth of the rats [8]: basically similar to the control group with no statistical difference
